Measurements published in patent US20240270759A1, “Preparation of SHP2 phosphatase inhibitors and its applications” (Ya Therapeutics Inc, priority 2021, published 2024).

Target: T1, SHP2 full-length protein (Homo sapiens, UniProt Q06124)
T1 construct: purchased BPS Bioscience #79330
T1 sequence (Q06124 1-593): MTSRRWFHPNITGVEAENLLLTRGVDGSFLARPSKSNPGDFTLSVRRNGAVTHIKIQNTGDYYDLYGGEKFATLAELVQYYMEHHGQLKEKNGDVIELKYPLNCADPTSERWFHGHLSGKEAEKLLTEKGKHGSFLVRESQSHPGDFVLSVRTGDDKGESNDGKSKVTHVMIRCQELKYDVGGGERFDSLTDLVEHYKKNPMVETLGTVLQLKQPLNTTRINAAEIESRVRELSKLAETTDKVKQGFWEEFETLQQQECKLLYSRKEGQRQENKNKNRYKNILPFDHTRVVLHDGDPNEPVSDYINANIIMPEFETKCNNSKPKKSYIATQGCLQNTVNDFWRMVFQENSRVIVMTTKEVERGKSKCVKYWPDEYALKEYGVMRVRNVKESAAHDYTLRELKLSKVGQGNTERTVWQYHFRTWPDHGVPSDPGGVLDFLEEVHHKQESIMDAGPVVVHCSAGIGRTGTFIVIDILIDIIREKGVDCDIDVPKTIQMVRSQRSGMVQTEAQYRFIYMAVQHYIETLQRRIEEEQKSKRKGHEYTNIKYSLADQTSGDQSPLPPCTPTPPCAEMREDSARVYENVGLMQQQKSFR
Assay: SHP2 allosteric inhibition experiment (Homogeneous Full Length SHP-2 Assay Kit)
Format: biochemical
Settings: full-length SHP2 0.06 nM with SHP-2 activating peptide; ten-point, 1 μM to 0.05 nM; read-out: IC50 Values of Compounds Inhibiting SHP2
Source text: The following further describes and explains the present invention in combination with test examples, but these examples are not meant to limit the scope of the present invention. SHP2 allosteric inhibition experiment
The purpose of this test is to measure the ability of the compounds to inhibit the allosteric activity of the SHP2 full-length protein. Experimental equipment: a centrifuge (5810R) is purchased from Eppendorf Company; pipettes are purchased from Eppendorf Company and Rainin Company, and microplate readers are purchased from BioTek Company of the United States, SynergyH1 multimode microplate reader.
Experimental method: Homogeneous Full Length SHP-2 Assay Kit (BPS Bioscience, #79330) is used to detect SHP2 activity in vitro. First, add 18 μL of Master Mix to 96-well low-adsorption microplate (NUNC, #267342), that is, 0.5 μL of SHP-2 activating Peptide and 5 mM DTT are included in the reaction buffer with a final concentration of 1×. After centrifugation, add 5 μL of the compound to be tested in DMSO (final DMSO content is 1% (V/V) in each well: dissolve the compound to be tested in DMSO to 1 mM, conduct triple dilution with a total of 10 concentration levels ranging from 1 μM to 0.05 nM in the reaction buffer. After diluting SHP2 in 1× reaction buffer to a final concentration of 0.06 nM, add it to the reaction microwell plate, 2 μL per well. Set a full activity control ([…]) and a full inhibition control (without SHP-2) on the reaction plate, and incubate the reaction mixture at room temperature for 60 minutes after centrifugation.
After incubation, add 25 μL of Substrate solution to each well, containing Substrate with a final concentration of 10 μM and DTT with a final concentration of 5 mM, and after centrifugation, continue to incubate at room temperature for 30 minutes. After the reaction, set the excitation wavelength at 340 nm, the emission wavelength at 455 nm, and the gain value to 75 on the Synergy H1 microplate reader (Biotek) for reading.
Take the full activity control and full inhibition control as the values of Max and Min, and calculate the percentage inhibition rate of the wells treated with the compound based on the positive control wells (DMSO control wells) and negative control wells (no kinase added) on the reaction plate, (inhibition rate percentage=100−[(test compound−Min average value)/(Max average value−Min average value)]×100%. IC50 values of test compounds are calculated by fitting percentage of inhibition and ten-point concentration data to a 4-parameter nonlinear logic formula using GraphPad prism.

SMILES	IC50 [nM]
C[C@@H]1OCC2(CCN(c3cnc(Sc4cccc(Nc5cccnc5)c4Cl)nc3)CC2)[C@@H]1N [Compound 107, (3S,4S)-8-(2-((2-chloro-3-(pyridine-3-amino)phenyl)mercapto)pyrimidine-5-yl)-3-me thyl-2-oxa-8-azaspiro[4.5]decane-4-amine]	10 to 100
C[C@@H]1OCC2(CCN(c3cnc(Sc4cccc(-c5ccn(C)n5)c4Cl)nc3)CC2)[C@@H]1N [Compound 99, (3S,4S)-8-(2-((2-chloro-3-(1-methyl-1H-pyrazole-3-yl)phenyl)mercapto)pyrimidine-5-yl)-3-methyl-2-oxa-8-azaspiro[4.5]decane-4-amine]	≤ 10
C[C@@H]1OCC2(CCN(c3cnc4nc(Sc5cccc(-c6cccnc6)c5Cl)ncc4n3)CC2)[C@@H]1N [Compound 78]	≤ 10
C[C@@H]1OCC2(CCN(c3ncc(Sc4cccc(NC(=O)c5ccncn5)c4Cl)cn3)CC2)[C@@H]1N [Compound 124, N-(3-((2-((3S,4S)-4-amino-3-methyl-2-oxa-8-azaspiro[4.5]decane-8-yl of 1)pyrimidine-5-yl)mercapto)-2-chlorophenyl)pyrimidine-4-carboxamide]	≤ 10
N[C@@H]1c2cccnc2CC12CCN(c1cnc3c(=O)n(-c4cccc(Cl)c4Cl)c(=O)[nH]c3n1)CC2 [Compound 14, (S)-7-(5-Amino-5,7-dihydrospiro [cyclopenta[b]pyridine-6,4′-piperidine]-1′-yl)-3-(2,3-dichlorophenyl)pteridine-2,4(1 H,3H)-dione]	10 to 100
CCn1ccc(-c2cccc(Sc3ccc(N4CCC5(CC4)CO[C@@H](C)[C@H]5N)nn3)c2Cl)n1 [Compound 127, (3S,4S)-8-(3-((2-chloro-3-(1-ethyl-1H-pyrazole-3-yl)phenyl)mercapto)pyridazine-6-yl)-3-methyl-2-oxa-8-azaspiro[4.5]decane-4-amine]	≤ 10
C[C@@H]1OCC2(CCN(c3cnc(Sc4cccc(-c5cnccn5)c4Cl)nc3)CC2)[C@@H]1N [Compound 104, (3S,4S)-8-(2-((2-chloro-3-(pyrazine-2-yl)phenyl)mercapto)pyrimidine-5-yl)-3-methyl-2-oxa-8-azaspiro[4.5]decane-4-amine]	≤ 10
C[C@@H]1OCC2(CCN(c3ncc(Sc4cccc(NC(=O)c5c(O)nc6n(c5=O)CCCC6)c4Cl)cn3)CC2)[C@@H]1N [Compound 114, N-(3-((2-((3S,4S)-4-amino-3-methyl-2-oxa-8-azaspiro[4.5]decane-8-yl)pyrimidine-5-yl)mercapto)-2-chlorophenyl)-2-hydroxyl-4-oxo-6,7,8,9-tetrahydro-4H-pyridinyl[1,2-a]pyrimidine-3-carboxamide]	10 to 100
N[C@@H]1c2ccncc2CC12CCN(c1cnc3c(=O)n(-c4ccnc(NC5CC5)c4Cl)c(=O)[nH]c3n1)CC2 [Compound 24]	≤ 10
C[C@@H]1OCC2(CCN(c3cnc(Sc4cccc(Nc5ccncn5)c4Cl)nc3)CC2)[C@@H]1N [Compound 110, (3S,4S)-8-(2-((2-chloro-3-(pyrimidine-4-amino)phenyl)mercapto)pyrimidine-5-yl)-3-methyl-2-oxa-8-azaspiro[4.5]decane-4-amine]	10 to 100
CC1(N)CCN(c2cnc3c(=O)n(-c4cccc(Cl)c4Cl)c(=O)[nH]c3n2)CC1 [Compound 11]	10 to 100
C[C@@H]1OCC2(CCN(c3cnc4nc(Sc5cccc(-c6ccn(C)n6)c5Cl)ccc4n3)CC2)[C@@H]1N [Compound 92, (3S,4S)-8-(6-((2-chloro-3-(1-methyl-1H-pyrazole-3-yl)phenyl)mercapto)pyridinyl[2,3-b]pyrazine-2-yl)-3-methyl-2-oxa-8-azaspiro[4.5]decane-4-amine]	≤ 10
C[C@@H]1OCC2(CCN(c3cnc(Sc4cccc(NC(=O)c5c(O)nc6n(c5=O)CCCC6)c4Cl)nc3)CC2)[C@@H]1N [Compound 102, N-(3-((5-((3S,4S)-4-amino-3-methyl-2-oxa-8-azaspiro[4.5]decane-8-yl)pyrimidine-2-yl)mercapto)-2-chlorobenzene)-2-hydroxyl-4-oxa-6,7,8,9-tetrahydro-4H-pyridinyl[1,2-a]pyrimidine-3-carboxamide]	≤ 10
CCn1ccc(-c2cccc(Sc3cnc4nc(N5CCC6(CC5)CO[C@@H](C)[C@H]6N)ncc4n3)c2Cl)n1 [Compound 67, (3S,4S)-8-(6-((2-chloro-3-(1-ethyl-1H-pyrazole-3-yl)phenyl)mercapto)pteridine-2-yl)-3-methylyl-2-oxa-8-azaspiro[4.5]decane-4-amine]	≤ 10
CC(C)n1ccc(-c2cccc(Sc3ncc(N4CCC5(CC4)CO[C@@H](C)[C@H]5N)cn3)c2Cl)n1 [Compound 101, (3S,4S)-8-(2-((2-chloro-3-(1-isopropyl-1H-pyrazole-3-yl)phenyl)mercapto)pyrimidine-5-yl)-3-methyl-2-oxa-8-azaspiro[4.5]decane-4-amine]	≤ 10
C[C@@H]1OCC2(CCN(c3ncc(Sc4cccc(Nc5ccncn5)c4Cl)cn3)CC2)[C@@H]1N [Compound 122, (3S,4S)-8-(5-((2-chloro-3-(pyrimidine-4-amino)phenyl)mercapto)pyrimidine-2-yl)-3-methyl-2-oxa-8-azaspiro[4.5]decane-4-amine]	≤ 10
Nc1nccc(-n2c(=O)[nH]c3nc(N4CCC5(CC4)Cc4cnccc4[C@H]5N)cnc3c2=O)c1Cl [Compound 20, (S)-3-(2-amino-3-chloropyridine-4-yl)-7-(5-amino-5,7-dihydrospiro[cyclopenta[c]pyridine-6,4′-piperidine]-1′-yl)pteridine-2,4(1H,3H)-dione]	≤ 10
C[C@@H]1OCC2(CCN(c3ncc4nc(Sc5cccc(-c6cnccn6)c5Cl)cnc4n3)CC2)[C@@H]1N [Compound 73, (3S,4S)-8-(6-((2-chloro-3-(pyrazine-2-yl)phenyl)mercapto)pteridine-2-yl)-3-methyl-2-oxa-8-azaspiro[4.5]decane-4-amine]	≤ 10
C[C@@H]1OCC2(CCN(c3ncc(Sc4cccc(-c5cnccn5)c4Cl)nn3)CC2)[C@@H]1N [Compound 135, (3S,4S)-8-(6-((2-chloro-3-(pyrazine-2-yl)phenyl)mercapto)-1,2,4-triazine-3-yl)-3-methyl-2-oxa-8-azaspiro[4.5]decane-4-amine]	≤ 10
C[C@@H]1OCC2(CCN(c3ncc(Sc4cccc(Nc5cccnc5)c4Cl)cn3)CC2)[C@@H]1N [Compound 119, (3S,4S)-8-(5-((2-chloro-3-(pyridine-3-amino)phenyl)mercapto)pyrimidine-2-yl)-3-me thyl-2-oxa-8-azaspiro[4.5]decane-4-amine]	≤ 10
C[C@@H]1OCC2(CCN(c3cnc4nc(Sc5cccc(NC(=O)c6cnccn6)c5Cl)ncc4n3)CC2)[C@@H]1N [Compound 84, N-(3-((6-((3S,4S)-4-amino-3-methyl-2-oxa-8-azaspiro[4.5]decane-8-yl)pteridine-2-yl)mercapto)-2-chlorophenyl)pyrazine-2-carboxamide]	≤ 10
CCn1ccc(-c2cccc(Sc3cnc(N4CCC5(CC4)CO[C@@H](C)[C@H]5N)nc3)c2Cl)n1 [Compound 112, (3S,4S)-8-(5-((2-chloro-3-(1-ethyl-1H-pyrazole-3-yl)phenyl)mercapto)pyrimidine-2-yl)-3-methyl-2-oxa-8-azaspiro[4.5]decane-4-amine]	10 to 100
C[C@@H]1OCC2(CCN(c3cnc(Sc4cccc(Nc5ncccn5)c4Cl)nc3)CC2)[C@@H]1N [Compound 108, (3S,4S)-8-(2-((2-chloro-3-(pyrimidine-2-amino)phenyl)mercapto)pyrimidine-5-yl)-3-methyl-2-oxa-8-azaspiro[4.5]decane-4-amine]	10 to 100
